Target: T1, human FPRL1 (Homo sapiens, UniProt P25090)
T1 construct: expressed in transfected cells; host or cells: HEK293 (JCRB9068, NIBIO), transient co-transfection with pCMV-script vectors
T1 sequence (P25090 1-351): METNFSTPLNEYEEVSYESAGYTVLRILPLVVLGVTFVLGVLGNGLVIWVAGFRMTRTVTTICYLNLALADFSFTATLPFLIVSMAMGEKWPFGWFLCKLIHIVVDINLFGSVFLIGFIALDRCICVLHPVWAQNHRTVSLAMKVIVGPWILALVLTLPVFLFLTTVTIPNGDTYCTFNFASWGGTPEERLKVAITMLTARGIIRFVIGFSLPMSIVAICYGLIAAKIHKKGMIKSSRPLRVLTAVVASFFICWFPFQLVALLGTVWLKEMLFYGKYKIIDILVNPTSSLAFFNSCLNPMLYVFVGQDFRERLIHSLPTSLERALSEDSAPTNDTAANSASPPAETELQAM
Assay: Measurement test of agonist activity on human FPRL1 (calcium mobilization in HEK293 cells transfected with human FPRL1 and Gα15)
Format: cell-based
Conditions: Fluo-4 NW, molar concentration giving 50% maximum activation, read-out: Efficacy EC50
Source text: Measurement test of agonist activity on human FPRL1
(1-1) Construction of Human FPRL1 Expression Vector
Human FPRL (SEQ ID NO: 3) was amplified in a PCR reaction from cDNA derived from a monocytic leukemia cell line THP-1 (TIB-202, ATCC) as a template using a forward primer shown in SEQ ID NO: 1, a reverse primer shown in SEQ ID NO: 2, and KOD-plus-ver. 2 (KOD-211, TOYOBO CO., LTD.). […] 2 (LGK-201, TOYOBO CO., LTD.). The ligation product was transformed into DH5α (DNA-901, TOYOBO CO., LTD.), cultured on a 100 μg/mL kanamycin-containing LB medium, and purified with HiSpeed Plasmid Maxi Kit (12662, QIAGEN).
(1-2) Construction of Human Gα15 Expression Vector
2. The amplified PCR product and pCMV-script vector were digested with Hind III and XhoI, and the resultant digest was ligated with Ligation high ver. 2. The ligation product was transformed into DH5α, cultured on a 100 μg/mL kanamycin-containing LB medium, and purified with HiSpeed Plasmid Maxi Kit.
(2-1) Method for Culturing and Subculturing HEK293
HEK293 (JCRB9068, NIBIO) was cultured in an incubator at 5% CO2 and 37° C. using DMEM (11885-092, GIBCO) containing 10% FBS and 1cPenicillin-Streptomycin (15140-122, GIBCO).
(2-2) Introduction of Human FPRL1 and Gal5 Expression Vectors
The cells were inoculated in a Collagen Type 1 coated 6-well plate (4810-010, IWAKI) to 5×10^5 cells/2.5 mL/well and cultured overnight. On the next day, human FPRL1 and Gα15 expression vectors were introduced using Lipofectamine 2000 transfection reagent (11668-019, Life technologies). First, the human FPRL1 and Gal5 expression vectors were diluted with Opti-MEM I Reduced Serum Medium (31985-070, GIBCO) to 2 μg/250 μL/well and Lipofectamine 2000 transfection reagent was diluted with Opti-MEM I Reduced Serum Medium to be 4 μL/250 μL/well. The vectors and reagent were softly diffused, and incubated at room temperature for 5 minutes. The vector solution was mixed with Lipofectamine 2000 transfection reagent in equal amounts. In order to form a complex of the vectors and Lipofectamine 2000 transfection reagent, the mixture was incubated at room temperature for 20 minutes, and added at 500 μL/well to the medium of inoculated cells. The treated cells were cultured for 24 hours, inoculated in Poly-D-Lysine coated 96-well plate (356640, BD Biosciences) at a cell density of 7×10^4 cells/100 μL/well, and cultured for another 24 hours. The resultant cells were used in a measurement test of calcium mobilization in the cells.
(3) Evaluation of Agonist Activity on Human FPRL1 (Test of Calcium Mobilization in Cell)
An appropriate amount of each test compound was first weighed, and dissolved to 10^−2 M by addition of dimethyl sulfoxide (DMSO). […] The plate dispensed with compound solutions was set in Flexstation (Molecular Devices, LLC.) until measurement.
Subsequently, 10 mL of assay buffer and 100 μL of probenecid solution (dissolved by addition of 1 mL of assay buffer to a 250 mM stock) were sufficiently mixed and dissolved in Fluo-4 NW dye mix. The medium of cells inoculated on the previous day was removed, the dissolved Fluo-4 NW dye mix was added in an amount of 90 μL/well, and a reaction was caused in the dark at 37° C. for 45 minutes. The cells after the reaction and chips for addition of the compound were set in Flexstation, and variation in fluorescence intensity over time after addition of the compound was measured [amount of added compound=10 μL (final concentration: 10^−5 M to 10^−12 M), excitation wavelength: 485 nm, measured wavelength: 525 nm, 1.5 sec×54 read]. A value was calculated by subtracting a base value during addition of DMSO from the maximum value of relative fluorescence unit, and analyzed. All the measurement data were analyzed with Prism 4 that was a data analysis tool.

`COc1ccc(C2CS(=O)(=O)CC2NC(=O)Nc2ccc(Cl)cc2)cc1` (racemic) [Example 1-10, (±)-1-(4-chlorophenyl)-3-[4-(4-methoxyphenyl)-1,1-dioxideterrahydrothiophen-3-yl]urea] showed an EC50 of 0.29 nM.
In the case of `O=C(Nc1ccc(F)cc1)N[C@@H]1c2nnnn2C[C@H]1c1cc2c(cc1F)OCC2` (single isomer, unassigned) [Example 7-5, (−)-1-[(6R*,7S*)-6-(6-fluoro-2,3-dihydrobenzofuran-5-yl)-6,7-dihydro-5H-pyrrolo[1,2-d]tetrazol-7-yl]-3-(4-fluorophenyl)urea], the EC50 is reported as 2.5 nM.
In the case of `COc1cc(F)c([C@@H]2CN3C(=O)CON=C3[C@H]2NC(=O)Nc2ccc(F)cc2)c(F)c1` (single isomer, unassigned) [Example 8-1, (−)-1-[(7R*,8S*)-7-(2,6-Difluoro-4-methoxyphenyl)-4-oxo-4,6,7,8-tetrahydro-3H-pyrrolo[2,1-c][1,2,4]oxadiazin-8-yl]-3-(4-fluorophenyl)urea], the EC50 is reported as 0.03 nM.
Work on `COc1ccc([C@@H]2Cn3nnnc3[C@H]2NC(=O)Nc2ccc(F)cc2)cc1` (single isomer, unassigned) [Example 7-3, (−)-1-(4-fluorophenyl)-3-[(6R*,7S*)-6-(4-methoxyphenyl)-6,7-dihydro-5H-pyrrolo[1,2-d]tetrazol-7-yl]urea] yielded an EC50 of 0.6 nM.
`COc1ccc([C@@H]2COC[C@@H]2NC(=O)Nc2ccc(Cl)s2)cc1` (racemic) [Example 1-7, (±)-cis-1-(5-chlorothiophen-2-yl)-3-[4-(4-methoxyphenyl)-tetrahydrofuran-3-yl]urea] gave an EC50 of 5.2 nM.
Molecule `COc1cc(F)c([C@@H]2COC[C@@H]2NC(=O)Nc2ccc(F)cc2)c(F)c1` (racemic) [Example 1-8, (±)-cis-1-[4-(2,6-difluoro-4-methoxyphenyl)-tetrahydrofuran-3-yl]-3-(4-fluorophenyl)urea] has an EC50 of 3.78 nM.
Molecule `COc1cc(F)c([C@@H]2Cn3c(C)nnc3C2NC(=O)Nc2ccc(F)cc2)c(F)c1` (single isomer, unassigned; (-)) [Example 7-1, (−)-1-[(6R*,7S*)-6-(2,6-Difluoro-4-methoxyphenyl)-3-methyl-6,7-dihydro-5H-pyrrolo[2,1-c][1,2,4]triazol-7-yl]-3-(4-fluorophenyl)urea] has an EC50 of 0.05 nM.
`COc1ccc([C@@H]2COC[C@@H]2NC(=O)Nc2ccc(C#N)cc2)cc1` (racemic) [Example 1-6, (±)-cis-1-(4-cyanophenyl)-3-[4-(4-methoxyphenyl)-tetrahydrofuran-3-yl]urea] gave an EC50 of 10 nM.
With `COc1ccc([C@@H]2COC[C@@H]2NC(=O)Nc2ccc(F)c(F)c2)cc1` (racemic) [Example 1-5, (±)-cis-1-(3,4-difluorophenyl)-3-[4-(4-methoxyphenyl)tetrahydrofuran-3-yl]urea] the EC50 was 12 nM.
Work on `COc1ccc([C@@H]2CCNC(=O)C2NC(=O)Nc2ccc(Cl)cc2)cc1` (mixture of isomers) [Example 1-11, (±)-trans-1-(4-chlorophenyl)-3-[4-(4-methoxyphenyl)-2-oxopiperidin-3-yl]urea] yielded an EC50 of 0.11 nM.
`COc1cc(F)c([C@@H]2CN3CCCN=C3[C@H]2NC(=O)Nc2ccc(F)cc2)c(F)c1` (single isomer, unassigned) [Example 7-6, (−)-1-[(7R*,8S*)-7-(2,6-difluoro-4-methoxyphenyl)-2,3,4,6,7,8-hexahydropyrrolo[1,2-a]pyrimidin-8-yl]-3-(4-fluorophenyl)urea] gave an EC50 of 0.97 nM.
`COc1cc(F)c([C@@H]2Cn3nnnc3[C@H]2NC(=O)Nc2ccc(F)cc2)c(F)c1` (single isomer, unassigned) [Example 7-4, (−)-1-[(6R*,7S*)-6-(2,6-difluoro-4-methoxyphenyl)-6,7-dihydro-5H-pyrrolo[1,2-d]tetrazol-7-yl]-3-(4-fluorophenyl)urea] showed an EC50 of 0.36 nM.
With `COc1ccc(C2COC(=O)N2NC(=O)Nc2ccc(Cl)cc2)cc1` (racemic) [Example 5-4, (±)-1-(4-chlorophenyl)-3-[4-(4-methoxyphenyl)-2-oxooxazolidin-3-yl]urea] the EC50 was 2.6 nM.
For `COc1ccc([C@@H]2COC[C@@H]2NC(=O)Nc2ccc(Cl)cc2)cc1` (racemic) [Example 1-1, (±)-cis-1-(4-Chlorophenyl)-3-[4-(4-methoxyphenyl)tetrahydrofuran-3-yl]urea], the EC50 was 0.25 nM.
With `COc1ccc([C@@H]2COC[C@H]2NC(=O)Nc2ccc(Cl)cc2)cc1` (racemic) [Example 1-9, (±)-trans-1-(4-chlorophenyl)-3-[4-(4-methoxyphenyl)tetrahydrofuran-3-yl]urea] the EC50 was 2.3 nM.
For `COc1cc(F)c([C@@H]2CN3C(=O)CCN=C3[C@H]2NC(=O)Nc2ccc(F)cc2)c(F)c1` (single isomer, unassigned) [Example 9-1, (−)-1-[(7R*,8S*)-7-(2,6-Difluoro-4-methoxyphenyl)-4-oxo-2,3,4,6,7,8-hexahydropyrrolo[1,2-a]pyrimidin-8-yl]-3-(4-fluorophenyl)urea], the EC50 was 0.03 nM.
`COc1ccc([C@@H]2CN3C(=O)CON=C3[C@H]2NC(=O)Nc2ccc(F)cc2)cc1` (relative stereo) [Example 10-1, 1-(4-Fluorophenyl)-3-[(7R*,8S*)-7-(4-methoxyphenyl)-4-oxo-4,6,7,8-tetrahydro-3H-pyrrolo[2,1-c][1,2,4]oxadiazin-8-yl]urea] gave an EC50 of 0.29 nM.
`O=C(Nc1ccc(F)cc1)NC1COC[C@H]1c1ccc(Cl)cc1` (mixture of isomers) [Example 5-1, (±)-cis-1-[4-(4-Chlorophenyl)tetrahydrofuran-3-yl]-3-(4-fluorophenyl)urea] showed an EC50 of 14 nM.
In the case of `COc1ccc([C@@H]2CC(=O)N[C@H]2NC(=O)Nc2ccc(F)cc2)cc1` (racemic) [Example 6-1, (±)-trans-1-(4-Fluorophenyl)-3-[3-(4-methoxyphenyl)-5-oxopyrrolidin-2-yl]urea], the EC50 is reported as 5.6 nM.
For `COc1cc(F)c([C@@H]2Cn3ccnc3[C@H]2NC(=O)Nc2ccc(F)cc2)c(F)c1` (single isomer, unassigned) [Example 7-2, (−)-1-[(6R*,7S*)-6-(2,6-difluoro-4-methoxyphenyl)-6,7-dihydro-5H-pyrrolo[1,2-a]imidazol-7-yl]-3-(4-fluorophenyl)urea], the EC50 was 0.25 nM.

Source: patent publication US10525058B2, “Urea derivative or pharmacologically acceptable salt thereof” (KYORIN PHARMACEUTICAL CO., LTD., priority 2015, dated 2020)
